In ChEMBL document CHEMBL4819081 (Eur J Med Chem, 2021):

How the values were obtained:
MDA-MB-231 [1] = test: Induction of apoptosis in human MDA-MB-231 cells assessed as late apoptotic cells at 10 uM after 24 hrs by Annexin-V/PI-staining based flow cytometry (reference value: 3.02%); assay type: functional
MDA-MB-453 [2] = test: Antiproliferative activity against human MDA-MB-453 cells assessed as reduction in cell viability after 72 hrs by MTT assay; assay type: functional, cell-based; settings: MDA-MB-453, 72 h
[3] = molecular target: Cyclin-dependent kinase 4/6 (Homo sapiens) (UniProt P11802+Q00534); test: Inhibition of CDK4/6 in human MDA-MB-231 cells assessed as reduction in Rb phosphorylation at Ser780 after 24 hrs by western blot analysis; assay type: cell-based; settings: dose 0.5-4 µM
Cyclin-dependent kinase 4/6 (Homo sapiens), sequence (P11802 whole entry, looked up): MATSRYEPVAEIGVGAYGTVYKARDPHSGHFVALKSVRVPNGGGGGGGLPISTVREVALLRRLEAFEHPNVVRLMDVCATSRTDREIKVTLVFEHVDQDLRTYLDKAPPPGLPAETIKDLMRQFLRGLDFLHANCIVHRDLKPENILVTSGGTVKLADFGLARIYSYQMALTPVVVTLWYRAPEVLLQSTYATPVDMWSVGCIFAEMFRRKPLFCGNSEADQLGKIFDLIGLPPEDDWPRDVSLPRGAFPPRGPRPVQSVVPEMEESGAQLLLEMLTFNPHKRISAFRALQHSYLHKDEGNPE
Cyclin-dependent kinase 4/6 (Homo sapiens), sequence (Q00534 whole entry, looked up): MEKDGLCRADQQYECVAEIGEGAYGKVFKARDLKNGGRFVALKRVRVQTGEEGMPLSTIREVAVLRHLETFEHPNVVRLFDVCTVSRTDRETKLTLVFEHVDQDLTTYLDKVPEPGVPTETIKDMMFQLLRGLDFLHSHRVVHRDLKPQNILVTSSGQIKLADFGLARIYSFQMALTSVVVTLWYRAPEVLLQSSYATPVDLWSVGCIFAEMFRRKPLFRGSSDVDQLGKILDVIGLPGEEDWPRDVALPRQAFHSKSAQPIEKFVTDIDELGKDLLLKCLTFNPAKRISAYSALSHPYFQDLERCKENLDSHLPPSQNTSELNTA

[4] = molecular target: T1, CDK6/cyclin D3 (Homo sapiens) (UniProt P30281+Q00534); test: Inhibition of CDK6/Cyclin D3 (unknown origin) at 20 nM using ATP by mobility shift assay; assay type: protein-complex assay
MDA-MB-231 [5] = test: Induction of cell cycle arrest in human MDA-MB-231 cells assessed as accumulation at S phase at 0.1875 uM after 12 hrs by propidium iodide staining-based flow cytometric analysis (reference value: 21.11%); assay type: functional
L02 = test: Cytotoxicity against human L02 cells measured upto 20 uM after 72 hrs by MTT assay; assay type: cell-based; settings: l02, 72 h
CDK6/cyclin D3 = CDK6/cyclin D3 (Homo sapiens, UniProt Q00534); test: Inhibition of CDK6/Cyclin D3 (unknown origin) by mobility shift assay; assay type: protein-complex assay
CDK6/cyclin D3, sequence (P30281 whole entry): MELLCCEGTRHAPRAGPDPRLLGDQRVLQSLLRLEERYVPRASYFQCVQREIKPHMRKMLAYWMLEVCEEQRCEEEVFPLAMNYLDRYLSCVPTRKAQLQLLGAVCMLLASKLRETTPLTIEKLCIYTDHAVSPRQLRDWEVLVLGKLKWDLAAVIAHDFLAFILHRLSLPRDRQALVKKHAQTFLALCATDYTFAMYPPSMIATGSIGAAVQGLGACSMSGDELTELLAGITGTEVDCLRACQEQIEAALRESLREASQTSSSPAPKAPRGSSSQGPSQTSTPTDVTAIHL
CDK6/cyclin D3, sequence (Q00534 whole entry): as the sequence (Q00534 whole entry, looked up) above

NCI-H1299 = test: Antiproliferative activity against human NCI-H1299 cells assessed as reduction in cell viability after 72 hrs by MTT assay; assay type: functional, cell-based; settings: NCI-H1299, 72 h
[6] = molecular target: Cyclin-dependent kinase 4/cyclin D1 (Homo sapiens) (UniProt P11802+P24385); test: Inhibition of CDK4/Cyclin D1 (unknown origin) at 200 nM using ATP by mobility shift assay; assay type: protein-complex assay
MDA-MB-231 [7] = test: Induction of apoptosis in human MDA-MB-231 cells assessed as early apoptotic cells at 10 uM after 24 hrs by Annexin-V/PI-staining based flow cytometry (reference value: 2.67%); assay type: functional
MDA-MB-231 [8] = test: Induction of apoptosis in human MDA-MB-231 cells assessed as late apoptotic cells at 2.5 uM after 24 hrs by Annexin-V/PI-staining based flow cytometry (reference value: 3.02%); assay type: functional
[9] = Toxicity in BALB/c mouse xenografted with human MDA-MB-231 cells assessed as body weight change at 40 to 80 mg/kg, po measured every 3 days for 21 days; assay type: organism-based; settings: in vivo, 72 h, dose 40-80 mg/kg, time 3 day
CDK7/Cyclin H/MNAT1 = CDK7/Cyclin H/MNAT1 (Homo sapiens, UniProt P50613); test: Inhibition of CDK7/cyclin H/MAT1 (unknown origin); assay type: protein-complex assay
CDK7/Cyclin H/MNAT1, sequence (P51946 whole entry): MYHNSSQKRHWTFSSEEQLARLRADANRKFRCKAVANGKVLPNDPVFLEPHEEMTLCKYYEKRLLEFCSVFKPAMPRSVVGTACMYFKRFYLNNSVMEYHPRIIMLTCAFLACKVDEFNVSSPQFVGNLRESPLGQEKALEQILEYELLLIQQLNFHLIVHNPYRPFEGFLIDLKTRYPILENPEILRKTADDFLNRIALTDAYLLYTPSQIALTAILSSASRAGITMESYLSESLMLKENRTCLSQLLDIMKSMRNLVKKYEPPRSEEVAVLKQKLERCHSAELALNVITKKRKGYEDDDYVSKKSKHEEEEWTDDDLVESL
CDK7/Cyclin H/MNAT1, sequence (P50613 whole entry): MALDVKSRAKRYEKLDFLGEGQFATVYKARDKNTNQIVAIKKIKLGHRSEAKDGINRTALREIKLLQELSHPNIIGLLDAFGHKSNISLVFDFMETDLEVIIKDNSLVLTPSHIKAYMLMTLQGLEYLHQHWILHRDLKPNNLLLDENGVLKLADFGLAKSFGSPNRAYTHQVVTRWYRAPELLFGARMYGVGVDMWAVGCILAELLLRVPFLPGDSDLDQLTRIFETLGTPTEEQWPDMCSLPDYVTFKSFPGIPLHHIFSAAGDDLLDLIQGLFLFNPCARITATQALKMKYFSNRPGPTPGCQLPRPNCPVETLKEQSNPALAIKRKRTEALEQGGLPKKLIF
CDK7/Cyclin H/MNAT1, sequence (P51948 whole entry, further chain): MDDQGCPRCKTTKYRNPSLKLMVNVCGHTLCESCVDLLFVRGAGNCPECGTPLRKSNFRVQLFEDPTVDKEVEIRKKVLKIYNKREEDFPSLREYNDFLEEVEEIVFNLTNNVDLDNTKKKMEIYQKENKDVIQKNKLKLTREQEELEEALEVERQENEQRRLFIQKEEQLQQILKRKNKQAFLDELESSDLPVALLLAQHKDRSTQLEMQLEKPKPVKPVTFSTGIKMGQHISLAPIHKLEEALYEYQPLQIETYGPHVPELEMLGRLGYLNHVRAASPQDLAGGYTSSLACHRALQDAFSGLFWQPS

[10] = Inhibition of clone formation in human MDA-MB-231 cells at 0.625 uM after 14 days by crystal violet staining based-colony formation assay; assay type: functional; settings: MDA-MB-231, 336 h, time 14 day
MDA-MB-231 [11] = test: Induction of cell cycle arrest in human MDA-MB-231 cells assessed as accumulation at G2 phase at 0.75 uM after 12 hrs by propidium iodide staining-based flow cytometric analysis (reference value: 21.11%); assay type: functional
[12] = molecular target: T1, CDK6/cyclin D3 (Homo sapiens); test: Inhibition of CDK6/Cyclin D3 (unknown origin) at 200 nM using ATP by mobility shift assay; assay type: protein-complex assay
MDA-MB-231 [13] = test: Antitumor activity against human MDA-MB-231 cells xenografted in BALB/c mouse assessed as tumor growth inhibition at 80 mg/kg, po measured every 3 days for 21 days; assay type: functional; settings: MDA-MB-231, po, 504 h, time 21 day, read-out: TGI
MDA-MB-231 [14] = test: Induction of cell cycle arrest in human MDA-MB-231 cells assessed as accumulation at G1 phase at 0.75 uM after 12 hrs by propidium iodide staining-based flow cytometric analysis (reference value: 53.11%); assay type: functional
[15] = molecular target: Cyclin-dependent kinase 1/cyclin B1 (Homo sapiens, UniProt P06493); test: Inhibition of CDK1/cyclin B (unknown origin); assay type: protein-complex assay
Cyclin-dependent kinase 1/cyclin B1, sequence (P06493 whole entry): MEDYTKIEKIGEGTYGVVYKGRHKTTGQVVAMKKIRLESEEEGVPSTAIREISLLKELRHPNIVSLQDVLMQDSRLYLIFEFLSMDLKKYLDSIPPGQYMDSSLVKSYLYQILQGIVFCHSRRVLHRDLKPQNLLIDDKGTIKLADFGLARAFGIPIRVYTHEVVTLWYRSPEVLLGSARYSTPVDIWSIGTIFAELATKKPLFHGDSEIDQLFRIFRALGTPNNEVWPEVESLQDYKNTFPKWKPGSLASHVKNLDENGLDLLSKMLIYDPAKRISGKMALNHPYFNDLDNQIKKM
Cyclin-dependent kinase 1/cyclin B1, sequence (P14635 whole entry, further chain): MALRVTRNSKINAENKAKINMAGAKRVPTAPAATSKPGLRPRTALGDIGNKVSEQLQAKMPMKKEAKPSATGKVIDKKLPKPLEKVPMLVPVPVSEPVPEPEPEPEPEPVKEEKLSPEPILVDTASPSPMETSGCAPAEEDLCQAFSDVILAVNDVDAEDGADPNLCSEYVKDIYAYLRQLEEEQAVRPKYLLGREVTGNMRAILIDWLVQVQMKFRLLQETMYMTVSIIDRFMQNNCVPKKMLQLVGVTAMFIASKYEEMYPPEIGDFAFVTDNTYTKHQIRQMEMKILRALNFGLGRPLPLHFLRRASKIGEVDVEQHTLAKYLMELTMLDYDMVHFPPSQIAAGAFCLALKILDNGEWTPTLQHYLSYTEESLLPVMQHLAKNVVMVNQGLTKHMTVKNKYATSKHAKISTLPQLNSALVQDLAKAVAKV

MDA-MB-231 [16] = test: Antitumor activity against human MDA-MB-231 cells xenografted in po dosed BALB/c mouse assessed as reduction in tumor weight measured every 3 days for 21 days; assay type: functional, organism-based; settings: dose 40-80 mg/kg, time […]
MCF7 = test: Potency index, ratio of IC50 for Palbociclib to IC50 for test compound for antiproliferative activity against human MCF7 cells assessed as reduction in cell viability after 72 hrs by MTT assay; assay type: functional
MDA-MB-231 [17] = test: Induction of cell cycle arrest in human MDA-MB-231 cells assessed as accumulation at S phase at 0.375 uM after 12 hrs by propidium iodide staining-based flow cytometric analysis (reference value: 23.71%); assay type: functional
[18] = molecular target: Cyclin-dependent kinase 9 (Homo sapiens, UniProt P50750); test: Inhibition of CDK9 (unknown origin)
Cyclin-dependent kinase 9, sequence (P50750 whole entry): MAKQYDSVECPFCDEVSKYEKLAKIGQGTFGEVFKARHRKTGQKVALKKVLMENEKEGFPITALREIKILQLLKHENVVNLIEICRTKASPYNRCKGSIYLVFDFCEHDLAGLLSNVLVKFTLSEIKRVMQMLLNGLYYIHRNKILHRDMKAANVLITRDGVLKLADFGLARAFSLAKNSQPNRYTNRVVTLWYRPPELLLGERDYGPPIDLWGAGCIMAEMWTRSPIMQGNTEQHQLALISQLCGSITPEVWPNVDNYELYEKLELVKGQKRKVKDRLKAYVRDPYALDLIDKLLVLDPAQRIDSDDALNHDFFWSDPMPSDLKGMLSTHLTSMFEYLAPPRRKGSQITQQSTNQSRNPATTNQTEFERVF

MDA-MB-231 [19] = test: Induction of apoptosis in human MDA-MB-231 cells assessed as early apoptotic cells at 0.625 uM after 24 hrs by Annexin-V/PI-staining based flow cytometry (reference value: 2.67%); assay type: functional
CDK4/Cyclin D3 = CDK4/Cyclin D3 (Homo sapiens, UniProt P11802); test: Inhibition of CDK4/Cyclin D3 (unknown origin) by mobility shift assay; assay type: protein-complex assay
CDK4/Cyclin D3, sequence (P11802 whole entry): as the sequence (P11802 whole entry, looked up) above
CDK4/Cyclin D3, sequence (P30281 whole entry, further chain): as the sequence (P30281 whole entry) above

MDA-MB-231 [20] = test: Potency index, ratio of IC50 for Palbociclib to IC50 for test compound for antiproliferative activity against human MDA-MB-231 cells assessed as reduction in cell viability after 72 hrs by MTT assay; assay type: functional
MDA-MB-231 [21] = test: Induction of apoptosis in human MDA-MB-231 cells assessed as late apoptotic cells at 5 uM after 24 hrs by Annexin-V/PI-staining based flow cytometry (reference value: 3.02%); assay type: functional
MDA-MB-231 [22] = test: Induction of cell cycle arrest in human MDA-MB-231 cells assessed as accumulation at S phase at 0.375 uM after 12 hrs by propidium iodide staining-based flow cytometric analysis (reference value: 21.11%); assay type: functional
MDA-MB-231 [23] = test: Induction of apoptosis in human MDA-MB-231 cells assessed as late apoptotic cells at 1.25 uM after 24 hrs by Annexin-V/PI-staining based flow cytometry (reference value: 3.02%); assay type: functional
MDA-MB-453 [24] = test: Potency index, ratio of IC50 for Palbociclib to IC50 for test compound for antiproliferative activity against human MDA-MB-453 cells assessed as reduction in cell viability after 72 hrs by MTT assay; assay type: functional
MDA-MB-231 [25] = test: Induction of cell cycle arrest in human MDA-MB-231 cells assessed as accumulation at S phase at 0.1875 uM after 12 hrs by propidium iodide staining-based flow cytometric analysis (reference value: 23.71%); assay type: functional
MDA-MB-231 [26] = test: Antitumor activity against human MDA-MB-231 cells xenografted in po dosed BALB/c mouse assessed as reduction in tumor volume measured every 3 days for 21 days; assay type: functional, organism-based; settings: dose 40-80 mg/kg, time 21.0 day
MDA-MB-231 [27] = test: Induction of cell cycle arrest in human MDA-MB-231 cells assessed as accumulation at G1 phase at 0.1875 uM after 12 hrs by propidium iodide staining-based flow cytometric analysis (reference value: 53.11%); assay type: functional
MDA-MB-231 [28] = test: Induction of cell cycle arrest in human MDA-MB-231 cells assessed as accumulation at S phase at 1.5 uM after 12 hrs by propidium iodide staining-based flow cytometric analysis (reference value: 23.71%); assay type: functional

## CC(=O)c1c(C)c2cnc(Nc3ccc(N4CCN(C(=O)CCl)CC4)cn3)nc2n(C2CCCC2)c1=O
MDA-MB-231 [1]
  Activity: 14.54%
MDA-MB-453 [2]
  IC50: 1750 nM
[3]
  inhibition: Dose-Dependent Effect
[4]
  inhibition: 81.6%
MDA-MB-231 [5]
  Activity: 13.82%
L02
  Activity: Non-Toxic
CDK6/cyclin D3
  IC50: 14 nM
NCI-H1299
  IC50: 2490 nM
[6]
  inhibition: 93.8%
MDA-MB-231 [7]
  Activity: 68.48%
MDA-MB-231 [8]
  Activity: 31.65%
[9]
  Activity: Non-Toxic
CDK7/Cyclin H/MNAT1
  IC50: > 3330 nM
[10]
  inhibition at 0.625 µM: 100%
MDA-MB-231 [11]
  Activity: 16.49%
[12]
  inhibition: 95.3%
MDA-MB-231 [13]
  inhibition in vivo at 80 mg/kg: 105%
MDA-MB-231 [14]
  Activity: 71%
[15]
  IC50: > 10000 nM
MDA-MB-231 [16]
  inhibition: Dose-Dependent Effect
MCF7
  Ratio IC50: 40
MDA-MB-231 [17]
  Activity: 15.36%
[18]
  IC50: 1830 nM
MDA-MB-231 [19]
  Activity: 4.24%
CDK4/Cyclin D3
  IC50: 6.1 nM
MDA-MB-231 [20]
  Ratio IC50: 4
MDA-MB-231 [21]
  Activity: 27.32%
MDA-MB-231 [22]
  Activity: 14.99%
MDA-MB-231 [23]
  Activity: 9.72%
MDA-MB-453 [24]
  Ratio IC50: 40
MDA-MB-231 [25]
  Activity: 15.55%
MDA-MB-231 [26]
  inhibition: Dose-Dependent Effect
MDA-MB-231 [27]
  Activity: 68.04%
MDA-MB-231 [28]
  Activity: 7.55%
